According to patent US9283222B2 (priority 2006, dated 2016):

Each compound was assayed against Recombinant Human Poly(ADP-Ribose) Polymerase (PARP), PARP-1 (Homo sapiens (Human), UniProt P09874). Conditions: read-out: PARP-1 (Ki); Table 1; text calls the values EC50s.
Sequence of Recombinant Human Poly(ADP-Ribose) Polymerase (PARP), PARP-1 (P09874 whole entry): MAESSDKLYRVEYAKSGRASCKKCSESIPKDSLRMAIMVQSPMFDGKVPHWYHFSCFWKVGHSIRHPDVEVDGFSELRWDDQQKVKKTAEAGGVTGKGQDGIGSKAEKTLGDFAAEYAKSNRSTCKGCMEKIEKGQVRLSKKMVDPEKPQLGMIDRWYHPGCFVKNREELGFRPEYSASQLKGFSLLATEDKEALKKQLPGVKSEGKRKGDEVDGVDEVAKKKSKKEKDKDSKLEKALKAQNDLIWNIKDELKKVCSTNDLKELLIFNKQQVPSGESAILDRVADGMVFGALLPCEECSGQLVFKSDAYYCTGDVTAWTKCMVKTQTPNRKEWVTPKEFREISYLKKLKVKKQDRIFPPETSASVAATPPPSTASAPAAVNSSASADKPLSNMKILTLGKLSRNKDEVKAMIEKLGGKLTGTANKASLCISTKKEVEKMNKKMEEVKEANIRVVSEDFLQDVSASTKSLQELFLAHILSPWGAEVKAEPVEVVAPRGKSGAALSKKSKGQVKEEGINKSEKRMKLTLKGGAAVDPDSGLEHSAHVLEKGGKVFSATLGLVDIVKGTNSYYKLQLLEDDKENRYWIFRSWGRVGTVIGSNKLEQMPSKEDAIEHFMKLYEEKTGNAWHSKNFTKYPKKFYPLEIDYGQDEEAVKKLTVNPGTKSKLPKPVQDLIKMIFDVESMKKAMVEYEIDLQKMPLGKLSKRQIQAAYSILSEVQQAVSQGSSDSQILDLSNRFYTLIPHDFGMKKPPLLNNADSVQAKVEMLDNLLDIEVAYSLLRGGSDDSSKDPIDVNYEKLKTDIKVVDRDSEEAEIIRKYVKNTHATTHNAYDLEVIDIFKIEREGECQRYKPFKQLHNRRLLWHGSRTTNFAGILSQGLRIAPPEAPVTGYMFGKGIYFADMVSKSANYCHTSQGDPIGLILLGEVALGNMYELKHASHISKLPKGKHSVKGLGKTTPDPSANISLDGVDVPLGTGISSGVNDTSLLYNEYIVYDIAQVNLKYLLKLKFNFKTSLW

Ki [nM]	SMILES
402	COc1ccc(NC(C)=O)cc1NC(=O)c1cccc(Cc2n[nH]c(=O)c3c2CCCC3)c1 [Example 357, N-(5-(acetylamino)-2-methoxyphenyl)-3-((4-oxo-3,4,5,6,7,8-hexahydrophthalazin-1-yl)methyl)benzamide]
66	O=C(Nc1ccc2c(c1)OCCO2)c1cccc(Cc2n[nH]c(=O)c3c2CCCC3)c1 [Example 358, N-2,3-dihydro-1,4-benzodioxin-6-yl-3-((4-oxo-3,4,5,6,7,8-hexahydrophthalazin-1-yl)methyl)benzamide]
151	COc1cc(OC)c(NC(=O)c2cccc(Cc3n[nH]c(=O)c4c3CCCC4)c2)cc1Cl [Example 359, N-(5-chloro-2,4-dimethoxyphenyl)-3-((4-oxo-3,4,5,6,7,8-hexahydrophthalazin-1-yl)methyl)benzamide]
94	CSc1cccc(NC(=O)c2cccc(Cc3n[nH]c(=O)c4c3CCCC4)c2)c1 [Example 360, N-(3-(methylthio)phenyl)-3-((4-oxo-3,4,5,6,7,8-hexahydrophthalazin-1-yl)methyl)benzamide]
76	CSc1ccc(NC(=O)c2cccc(Cc3n[nH]c(=O)c4c3CCCC4)c2)cc1 [Example 361, N-(4-(methylthio)phenyl)-3-((4-oxo-3,4,5,6,7,8-hexahydrophthalazin-1-yl)methyl)benzamide]
185	O=C(Nc1ccc(N2CCCCC2)cc1)c1cccc(Cc2n[nH]c(=O)c3c2CCCC3)c1 [Example 362, 3-((4-oxo-3,4,5,6,7,8-hexahydrophthalazin-1-yl)methyl)-N-(4-piperidin-1-ylphenyl)benzamide]
132	O=C(Nc1ccc(N2CCOCC2)cc1)c1cccc(Cc2n[nH]c(=O)c3c2CCCC3)c1 [Example 363, N-(4-morpholin-4-ylphenyl)-3-((4-oxo-3,4,5,6,7,8-hexahydrophthalazin-1-yl)methyl)benzamide]
316	O=C(Nc1ccccc1Nc1ccccc1)c1cccc(Cc2n[nH]c(=O)c3c2CCCC3)c1 [Example 364, N-(2-anilinophenyl)-3-((4-oxo-3,4,5,6,7,8-hexahydrophthalazin-1-yl)methyl)benzamide]
120	COc1ccc(Nc2ccc(NC(=O)c3cccc(Cc4n[nH]c(=O)c5c4CCCC5)c3)cc2)cc1 [Example 365, N-(4-((4-methoxyphenyl)amino)phenyl)-3-((4-oxo-3,4,5,6,7,8-hexahydrophthalazin-1-yl)methyl)benzamide]
23	O=C(Nc1ccc2ncccc2c1)c1cccc(Cc2n[nH]c(=O)c3c2CCCC3)c1 [Example 366, 3-((4-oxo-3,4,5,6,7,8-hexahydrophthalazin-1-yl)methyl)-N-quinolin-6-ylbenzamide]
45	O=C(Nc1cccc2c(O)cccc12)c1cccc(Cc2n[nH]c(=O)c3c2CCCC3)c1 [Example 367, N-(5-hydroxy-1-naphthyl)-3-((4-oxo-3,4,5,6,7,8-hexahydrophthalazin-1-yl)methyl)benzamide]
56	O=C(Nc1ccc2cn[nH]c2c1)c1cccc(Cc2n[nH]c(=O)c3c2CCCC3)c1 [Example 368, N-1H-indazol-6-yl-3-((4-oxo-3,4,5,6,7,8-hexahydrophthalazin-1-yl)methyl)benzamide]
14	O=C1CC[C@@H]2COc3ccc(Cc4n[nH]c(=O)c5c4CCCC5)cc3N12 [Example 371]
51	O=C(NCCc1ccccc1)c1cccc(Cc2n[nH]c(=O)c3c2CCCC3)c1 [Example 375, 3-((4-oxo-3,4,5,6,7,8-hexahydrophthalazin-1-yl)methyl)-N-(2-phenylethyl)benzamide]
173	Cc1ccccc1CCNC(=O)c1cccc(Cc2n[nH]c(=O)c3c2CCCC3)c1 [Example 376, N-(2-(2-methylphenyl)ethyl)-3-((4-oxo-3,4,5,6,7,8-hexahydrophthalazin-1-yl)methyl)benzamide]
42	Cc1cccc(CCNC(=O)c2cccc(Cc3n[nH]c(=O)c4c3CCCC4)c2)c1 [Example 377, N-(2-(3-methylphenyl)ethyl)-3-((4-oxo-3,4,5,6,7,8-hexahydrophthalazin-1-yl)methyl)benzamide]
28	Cc1ccc(CCNC(=O)c2cccc(Cc3n[nH]c(=O)c4c3CCCC4)c2)cc1 [Example 378, N-(2-(4-methylphenyl)ethyl)-3-((4-oxo-3,4,5,6,7,8-hexahydrophthalazin-1-yl)methyl)benzamide]
20	O=C(NCCc1ccccn1)c1cccc(Cc2n[nH]c(=O)c3c2CCCC3)c1 [Example 379, 3-((4-oxo-3,4,5,6,7,8-hexahydrophthalazin-1-yl)methyl)-N-(2-pyridin-2-ylethyl)benzamide]
71	O=C(NCCc1cccnc1)c1cccc(Cc2n[nH]c(=O)c3c2CCCC3)c1 [Example 380, 3-((4-oxo-3,4,5,6,7,8-hexahydrophthalazin-1-yl)methyl)-N-(2-pyridin-3-ylethyl)benzamide]
67	O=C(NCCc1ccncc1)c1cccc(Cc2n[nH]c(=O)c3c2CCCC3)c1 [Example 381, 3-((4-oxo-3,4,5,6,7,8-hexahydrophthalazin-1-yl)methyl)-N-(2-pyridin-4-ylethyl)benzamide]

Ki [nM]	SMILES
79	COc1ccccc1CCNC(=O)c1cccc(Cc2n[nH]c(=O)c3c2CCCC3)c1 [Example 382, N-(2-(2-methoxyphenyl)ethyl)-3-((4-oxo-3,4,5,6,7,8-hexahydrophthalazin-1-yl)methyl)benzamide]
44	COc1cccc(CCNC(=O)c2cccc(Cc3n[nH]c(=O)c4c3CCCC4)c2)c1 [Example 383, N-(2-(3-methoxyphenyl)ethyl)-3-((4-oxo-3,4,5,6,7,8-hexahydrophthalazin-1-yl)methyl)benzamide]
40	COc1ccc(CCNC(=O)c2cccc(Cc3n[nH]c(=O)c4c3CCCC4)c2)cc1 [Example 384, N-(2-(4-methoxyphenyl)ethyl)-3-((4-oxo-3,4,5,6,7,8-hexahydrophthalazin-1-yl)methyl)benzamide]
42	O=C(NCCc1ccccc1F)c1cccc(Cc2n[nH]c(=O)c3c2CCCC3)c1 [Example 385, N-(2-(2-fluorophenyl)ethyl)-3-((4-oxo-3,4,5,6,7,8-hexahydrophthalazin-1-yl)methyl)benzamide]
33	O=C(NCCc1cccc(F)c1)c1cccc(Cc2n[nH]c(=O)c3c2CCCC3)c1 [Example 386, N-(2-(3-fluorophenyl)ethyl)-3-((4-oxo-3,4,5,6,7,8-hexahydrophthalazin-1-yl)methyl)benzamide]
44	O=C(NCCc1ccc(F)cc1)c1cccc(Cc2n[nH]c(=O)c3c2CCCC3)c1 [Example 387, N-(2-(4-fluorophenyl)ethyl)-3-((4-oxo-3,4,5,6,7,8-hexahydrophthalazin-1-yl)methyl)benzamide]
88	O=C(NCCc1ccccc1Cl)c1cccc(Cc2n[nH]c(=O)c3c2CCCC3)c1 [Example 388, N-(2-(2-chlorophenyl)ethyl)-3-((4-oxo-3,4,5,6,7,8-hexahydrophthalazin-1-yl)methyl)benzamide]
48	O=C(NCCc1cccc(Cl)c1)c1cccc(Cc2n[nH]c(=O)c3c2CCCC3)c1 [Example 389, N-(2-(3-chlorophenyl)ethyl)-3-((4-oxo-3,4,5,6,7,8-hexahydrophthalazin-1-yl)methyl)benzamide]
31	O=C(NCCc1ccc(Cl)cc1)c1cccc(Cc2n[nH]c(=O)c3c2CCCC3)c1 [Example 390, N-(2-(4-chlorophenyl)ethyl)-3-((4-oxo-3,4,5,6,7,8-hexahydrophthalazin-1-yl)methyl)benzamide]
70	O=C(NCCc1ccc(-c2ccccc2)cc1)c1cccc(Cc2n[nH]c(=O)c3c2CCCC3)c1 [Example 393, N-(2-(1,1′-biphenyl-4-yl)ethyl)-3-((4-oxo-3,4,5,6,7,8-hexahydrophthalazin-1-yl)methyl)benzamide]
22	O=C(NCCc1cccc(C(F)(F)F)c1)c1cccc(Cc2n[nH]c(=O)c3c2CCCC3)c1 [Example 394, 3-((4-oxo-3,4,5,6,7,8-hexahydrophthalazin-1-yl)methyl)-N-(2-(3-(trifluoromethyl)phenyl)ethyl)benzamide]
38	O=C(NCCc1ccc(C(F)(F)F)cc1)c1cccc(Cc2n[nH]c(=O)c3c2CCCC3)c1 [Example 395, 3-((4-oxo-3,4,5,6,7,8-hexahydrophthalazin-1-yl)methyl)-N-(2-(4-(trifluoromethyl)phenyl)ethyl)benzamide]
83	O=C(NCCc1ccc(Oc2ccccc2)cc1)c1cccc(Cc2n[nH]c(=O)c3c2CCCC3)c1 [Example 396, 3-((4-oxo-3,4,5,6,7,8-hexahydrophthalazin-1-yl)methyl)-N-(2-(4-phenoxyphenyl)ethyl)benzamide]
50	Cc1ccc(CCNC(=O)c2cccc(Cc3n[nH]c(=O)c4c3CCCC4)c2)cc1C [Example 397]
82	Cc1ccc(CCNC(=O)c2cccc(Cc3n[nH]c(=O)c4c3CCCC4)c2)c(C)c1 [Example 398, N-(2-(2,4-dimethylphenyl)ethyl)-3-((4-oxo-3,4,5,6,7,8-hexahydrophthalazin-1-yl)methyl)benzamide]
65	Cc1ccc(C)c(CCNC(=O)c2cccc(Cc3n[nH]c(=O)c4c3CCCC4)c2)c1 [Example 399, N-(2-(2,5-dimethylphenyl)ethyl)-3-((4-oxo-3,4,5,6,7,8-hexahydrophthalazin-1-yl)methyl)benzamide]
22	CCOc1cc(CCNC(=O)c2cccc(Cc3n[nH]c(=O)c4c3CCCC4)c2)ccc1OC [Example 400, N-(2-(3-ethoxy-4-methoxyphenyl)ethyl)-3-((4-oxo-3,4,5,6,7,8-hexahydrophthalazin-1-yl)methyl)benzamide]
48	CCOc1ccc(CCNC(=O)c2cccc(Cc3n[nH]c(=O)c4c3CCCC4)c2)cc1OC [Example 401, N-(2-(4-ethoxy-3-methoxyphenyl)ethyl)-3-((4-oxo-3,4,5,6,7,8-hexahydrophthalazin-1-yl)methyl)benzamide]
86	COc1cccc(CCNC(=O)c2cccc(Cc3n[nH]c(=O)c4c3CCCC4)c2)c1OC [Example 402, N-(2-(2,3-dimethoxyphenyl)ethyl)-3-((4-oxo-3,4,5,6,7,8-hexahydrophthalazin-1-yl)methyl)benzamide]
